Two compounds from PMC4112551 (Journal of biomolecular screening, 2012) can be followed below.

The target of the experiment is rhGCPII (extracellular part of human GCPII, amino acids 44–750) (Homo sapiens, UniProt Q04609). Nature of the experiment: Fluorescence polarization. Format: binding. For orientation: Polarisation of emitted light reports the rotation of a fluorescent probe.

A word on the IC50: it is the midpoint of a concentration-inhibition curve.

Sequence of rhGCPII (extracellular part of human GCPII, amino acids 44–750) (Q04609 44-750): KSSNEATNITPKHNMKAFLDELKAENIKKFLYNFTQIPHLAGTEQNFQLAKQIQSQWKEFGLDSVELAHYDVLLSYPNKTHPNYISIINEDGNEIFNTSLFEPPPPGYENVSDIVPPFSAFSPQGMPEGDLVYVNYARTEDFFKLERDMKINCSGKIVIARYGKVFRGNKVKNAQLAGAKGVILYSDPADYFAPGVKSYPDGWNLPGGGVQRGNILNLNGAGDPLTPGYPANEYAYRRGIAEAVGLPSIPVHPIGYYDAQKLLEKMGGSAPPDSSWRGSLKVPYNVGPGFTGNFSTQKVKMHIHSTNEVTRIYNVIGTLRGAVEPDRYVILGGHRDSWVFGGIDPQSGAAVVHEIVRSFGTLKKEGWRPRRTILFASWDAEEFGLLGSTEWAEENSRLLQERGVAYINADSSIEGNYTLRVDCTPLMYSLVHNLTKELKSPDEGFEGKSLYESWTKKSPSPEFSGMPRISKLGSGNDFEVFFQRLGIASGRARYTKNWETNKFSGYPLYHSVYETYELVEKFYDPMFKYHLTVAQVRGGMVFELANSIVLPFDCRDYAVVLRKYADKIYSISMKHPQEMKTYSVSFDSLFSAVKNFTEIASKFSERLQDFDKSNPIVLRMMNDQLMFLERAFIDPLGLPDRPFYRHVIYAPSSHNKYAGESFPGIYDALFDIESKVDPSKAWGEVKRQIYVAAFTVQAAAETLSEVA

As to `N[C@@H](CCC(=O)O)C(=O)O` [glutamic acid], 870 µM corresponded to half-maximal inhibition (IC50).

`N[C@@H](Cn1oc(=O)[nH]c1=O)C(=O)O` [quisqualate] yielded a half-maximal inhibitory concentration (IC50) of 16.7 µM.
